Results as given in a melting point compilation (Tetko et al.; mined from patent text by program, amines drawn as free bases though some values may be those of a salt).

Row | SMILES | melting point [°C]
1 | OC(c1cccc(-c2nnc(Nc3ccc(Cl)c(Cl)c3)s2)c1)c1cccc(C(F)(F)F)c1 (centres undefined) | 191 to 192
2 | Ic1cc(I)c(OCCC(c2ccccc2)c2ccccc2)c(I)c1 | 120 to 121
3 | COc1nc2cc([N+](=O)[O-])cc(Br)c2nc1OC | 171 to 175
4 | CCN(CC)C(=O)Oc1nc(C)c2cc(OC)c(OC)cc2c1N | 206 to 207
5 | c1ccc(-c2cn3ccccc3n2)cc1 | 135 to 137
6 | CC(C)[C@H](NC(=O)OCc1ccccc1)C(=O)NCC(=O)OC(C)(C)C | 139 to 141
7 | CS(=O)c1[nH]cc(CCc2ccccc2)c1[N+](=O)[O-] (centres undefined) | 172 to 173
8 | COc1ccccc1[C@@]1(O)[C@H](O)CC(c2ccccc2)(c2ccccc2)[C@@H]2CN(C(=O)Cc3c[nH]c4ccc(F)cc34)C[C@@H]21 (racemic) | 248
9 | Cc1c(C2CCC(c3cccs3)(N(C)C)CC2)[nH]c2ccccc12 (centres undefined) | 191 to 197
10 | CC(C)OC(=O)NC1=NCC(c2cccc(F)c2)N1C (centres undefined) | 103 to 104
11 | O=CNc1ccc(OCCNCC(O)c2ccc(OCc3ccccc3)cc2)cc1 (centres undefined) | 152
12 | Clc1nc2cc(Cl)c(Cl)cc2[nH]1 | 212 to 214
13 | O=C(OCC1CC1)c1ncn2c1[C@@H]1CCCN1C(=O)c1c(I)cccc1-2 | 164 to 165
14 | O=CNCC(=O)c1ccc(Cl)s1 | 111 to 113
15 | Clc1nc(NC2CC2)nc(C2CC2)n1 | 66 to 67
16 | O=C(c1ccc(-c2ccccc2)cc1)c1ccc([N+](=O)[O-])cc1 | 174 to 176
17 | O=C(O)[C@@H]1C[C@H]1Sc1nc2ccccc2cc1-c1ccccc1 (relative stereo) | 168 to 170
18 | COC(=O)c1cccc(/C=C/C(=O)Nc2ccccc2NC(=O)OC(C)(C)C)c1 | 79 to 82.4
19 | CN1C(=O)C(NC(=O)c2cc3ccccc3[nH]2)C(=O)N(c2ccccc2)c2cc(Cl)ccc21 (centres undefined) | 280
20 | COC(=O)c1ccc(Br)c(S)c1 | 81
21 | CC(C)N1Cc2ccccc2P1(=O)c1ccccc1 (centres undefined) | 92 to 94
22 | CCCCOS(C)(=O)=O | 100 to 101
23 | CC(C)(c1ccccc1)c1cc(C(C)(C)c2ccccc2)c(O)cc1O | 130
24 | CSCCC(=O)Nc1ccc(-n2nc(C(F)(F)F)cc2C(F)(F)F)cc1 | 122 to 123
25 | COc1cc(C=CC(=O)Nc2cnc3c(C)cc(C)cc3c2-c2ccc(F)cc2)cc(OC)c1OC(C)=O | 260 to 261
26 | Oc1ccc(Cl)cc1C(O)(c1ccccc1)C1CCCCC1 (centres undefined) | 170
27 | COC(=O)CCCCNC(=O)C[C@H]1O[C@H](c2cccc(OC)c2OC)c2cc(Cl)ccc2N(CC(C)(C)CO)C1=O | 84 to 85

Row | SMILES | melting point [°C]
28 | CC(=O)N1C(C)(C)CC(N2CCCCCC2=O)CC1(C)C | 104 to 108
29 | COc1ccc(F)c(N)c1 | 27 to 28
30 | N#Cc1cnn2c(C(F)(F)F)cc(-c3ccc(F)c(C(F)(F)F)c3)nc12 | 204
31 | CCNC(=S)NS(=O)(=O)c1cc(CCNC(=O)C=Cc2ccc(OC)cc2OC)ccc1OCCOC | 146 to 148
32 | O=S(=O)(c1cc(Cl)ccc1Cl)n1c2cc(O)c(O)cc2c2ccc(O)c(O)c21 | > 300
33 | CCOC(=O)CCCCOc1ccc(C(=N)NC(=O)OCc2ccccc2)cc1 | 88 to 90
34 | NCc1cccc(Nc2ncnc3[nH]cc(C(=O)c4ccccc4)c23)c1 | 210 to 212
35 | CC(=O)NCCc1ccc(C=O)cc1 | 81 to 83
36 | O=c1c2c(Cl)cc(Cl)cc2n(Cc2ccccc2)c(=O)n1Cc1ccc(Cl)cc1 | 161 to 165
37 | C=CCNC(=O)N1CC(Oc2ccc(Br)cc2)C1 | 100 to 101
38 | Cc1ccc(NC(=O)c2cccc(C(F)(F)F)c2)cc1/C=C/n1cnc2c(Nc3ccc(P(C)(C)=O)cc3)ncnc21 | 230 to 234
39 | O=C(COc1ccc(Cl)cc1)CS(=O)(=O)C(c1ccc(Cl)cc1)c1ccc(Cl)cc1 | 105 to 107
40 | O=C1CN=C(C2CCCCC2)c2cc(Cl)ccc2N1 | 210
41 | COc1cccc(-c2ccc3c(c2)C2(CCCCC2)C(=NOCc2ccccc2)N3)c1 | 101 to 104
42 | CC(C)(C)c1nc(-c2nn(-c3ccc(F)cc3F)c3c2C2CCC3C2)n[nH]1 (centres undefined) | 268 to 269
43 | O=Cc1cc2ccccc2nc1I | 150 to 152
44 | CCCCC(=O)OCC(=O)C1(OC(C)=O)CCC2C3CC(C)C4=CC(=O)C=CC4(C)C3C(O)CC21C (centres undefined) | 148 to 150
45 | C=CCn1c(=O)c2[nH]c(/C=C/c3cc(OC)c(OC)c(OC)c3)nc2n(CC=C)c1=O | 253 to 255
46 | CC(C)(C)OC(=O)C(C(=O)c1ccc(NS(C)(=O)=O)cc1Cl)C(=O)C1CC1 (centres undefined) | 137 to 140
47 | O=C(NNS(=O)(=O)c1ccccc1)c1ccccc1CCc1ccccc1 | 158 to 159
48 | Nc1ccc(S(=O)(=O)C(F)(F)F)c2sc3ccccc3c12 | 108
49 | CCc1cc(C)cc(CC)c1C(C(N)=O)C(N)=O | 184 to 186
50 | NC(=O)c1cc(OCCNCc2ccccc2)ccc1O | 140
51 | CCOC(=O)C(Cc1cc(OC)ccc1OC)C(C)=O (centres undefined) | 68 to 69
52 | O=C(N[C@@H](Cc1ccccc1)C(=O)O)c1cccc(NC(=O)C(CS)Cc2ccccc2)c1 (some centres undefined) | 83 to 85
53 | COC1=CC2=CCC3C(=CCC4(C)C(=O)C(C)CC34)C2(C)CC1 (centres undefined) | 124 to 129
54 | CCOC(=O)c1c(C(F)(F)C(F)(F)F)[nH]c(C(F)(F)C(F)(F)F)c1C(=O)OCC | 64.5 to 65.5

Next, values leading:

Row | melting point [°C] | SMILES
55 | 103 | CCOC(=O)C1=C(N2CCCCC2)N=C(C)C(C(=O)OCC)C1c1ccccc1C#N (centres undefined)
56 | 97 to 98 | Cc1[nH]cnc1CSCCNC(=O)NCCCCN(C)CCC(c1ccc(Cl)cc1)c1ccccn1 (centres undefined)
57 | 173 to 174 | CC1=C(O)C(=O)c2ccccc2C1=O
58 | 133 to 134 | O=c1[nH]c(=O)n(Cc2cccc(OCc3noc(-c4ccccc4)n3)c2)o1
59 | 117 to 119 | CCCCOc1ncc(C(C)O)cc1-c1nc2c(CC)n(C3CN(CC)C3)nc2c(=O)[nH]1 (centres undefined)
60 | 128 to 130 | S=C(NCCC1CC(c2ccccc2)=NO1)N1CCOCC1 (centres undefined)
61 | 190 to 192 | O=C1CCC(N2Cc3cc(CNC(=O)Nc4ccc(-c5ncc[nH]5)cc4)ccc3C2=O)C(=O)N1 (centres undefined)
62 | 102 to 104 | CCc1onc(-c2ccccc2)c1C(=O)NCCCN1CCN(c2ccccc2OCC(F)(F)F)CC1
63 | 162 to 163 | COC(=O)c1cccc(Nc2nccc(-c3ccnc(NCCCO)c3)n2)c1
64 | 71 to 72 | CCCc1nn(-c2ccc(C(F)(F)F)cn2)cc1CCCC=O
65 | 107 | O=S(=O)(c1ccc(Cl)cc1)N1CCCC1c1ccc(C(F)(F)F)cc1 (racemic)
66 | 188 to 189 | Nc1c(F)c(N2CCC(C(N)c3ccco3)C2)c(F)c2c1c(=O)c(C(=O)O)cn2C1CC1F (centres undefined)
67 | 150 | COc1ccc(C(O)(CC(=O)N2CCOCC2)c2ccc(Cl)cc2)cc1OC (centres undefined)
68 | 189 to 190 | CSc1nnc(-c2ccnc(Nc3cccc(C(F)(F)F)c3)c2)o1
69 | 149 to 151 | O=[N+]([O-])c1ccc2c(c1)C(O)Cc1ccc(F)cc1S2 (centres undefined)
70 | 234 to 236 | CC(C)(C)Nc1c(Nc2ccc3ncccc3c2)c(=O)c1=O
71 | 150 | CCOC(=O)C1=C(C)NC(C)=C(C(=O)OC)C1c1cccc(C#N)c1 (centres undefined)
72 | 290 to 293 | COc1ccc(-c2nnc3c4ccccc4c(OC4CCNC4=O)nn23)cc1 (centres undefined)
73 | 115 to 116 | CC(=O)N1CCCCc2ccc(C(=O)CCC3CCN(Cc4ccccc4)CC3)cc21
74 | 232 to 234 | O=c1c(Cc2ccncc2)c(-c2ccc(Cl)cc2)[nH]c2ccccc12
75 | 280 | O=C(Nc1cccc(S(=O)(=O)N2CCCC2)c1)c1cnn2c(C(F)(F)F)cc(-c3ccc(Cl)c(Cl)c3)nc12
76 | 104 to 107 | Cc1ccc(C(=O)c2ccc(Cc3ccc(N)cn3)n2C)cc1
77 | 226 to 238 | CCOC(=O)c1cnc2c(-c3ccc(Cc4cccc(OC)c4)c(OC)c3)cnn2c1O

Row | melting point [°C] | SMILES
78 | 110 | OCCCCCCCCCCCCN1CCC(CNC[C@H](O)COc2cccc3[nH]c4ccccc4c23)CC1
79 | 279 to 281 | COc1ncccc1-c1nc(C(N)=O)c2[nH]c(=O)n(-c3ccccc3)c2n1
80 | 95 to 97 | CCOC(=O)c1ccc(NC(=O)NCCN2CCN=C2c2ccccn2)cc1
81 | 145 to 147 | O=C1CCC(N2Cc3c(OCc4ccc(CN5CCOc6ccccc65)cc4)cccc3C2=O)C(=O)N1 (centres undefined)
82 | 168 | CCCCOC(=O)n1c2ccccc2c2nc3ccccc3cc21
83 | 143 to 145 | Cc1c(CC(=O)O)c2cc(O)ccc2n1C(=O)c1ccc(F)c(F)c1
84 | 218 to 221 | O=C1CCCC2=C1C(c1cccc([N+](=O)[O-])c1)C1=C(CCCC1)N2 (centres undefined)
85 | 116 to 117 | COc1cc2ncnc(N3CCC(C(C)=O)CC3)c2cc1OC
86 | 167 to 170 | O=C1CNc2ccccc2CN1
87 | 200 | CC(C)Cc1nc2c(C(F)(F)F)cccc2c(O)c1C(=O)O
88 | 173 to 175 | Cc1ccc(Nc2ncccc2N)c(C)c1[N+](=O)[O-]
89 | 132 to 134 | O=C(OCC(Cl)(Cl)Cl)N1CCC(=C2c3ccccc3Oc3ccccc32)CC1
90 | 133 to 136 | CN1CCN(c2ccc(C(=O)C(C)(C)N3CCN(C)CC3)cc2)CC1
91 | 175 | CCn1nnn(CCN2CCC(=C3c4sccc4CCn4ccnc43)CC2)c1=O
92 | 113 | CN(CCN)C(=O)N1N=C2c3cc(F)ccc3OC[C@@H]2[C@@H]1c1ccccc1 (racemic)
93 | 66 to 67 | COc1ccc(-c2ccc(C)nc2-c2ccc(OCCN3CCOCC3)cc2)cc1
94 | 136 to 138 | N#Cc1ccc2[nH]cc(C3CCC(=O)C3)c2c1 (centres undefined)
95 | 126 | Cc1cccc(C(=O)CSC(=S)Nc2ccc(Cl)cn2)c1
96 | 79 | CC(=O)OCCn1ncc(-c2ncc([N+](=O)[O-])n2C)c1C
97 | 209 to 210 | CC(C)(O)Cn1c(CONC(=O)C2CC2)nc2c(N)nc3ccccc3c21
98 | 245 to 246 | CCn1cc(C(=O)O)c(=O)c2ccc(F)c(C)c21
99 | 197 to 199 | CC(=O)c1cccc(N2C(=O)CCSC2=S)c1
